Laboratory results reported in ChEMBL document CHEMBL5338818, “Discovery of the First Potent, Selective, and In Vivo Efficacious Polo-like Kinase 4 Proteolysis Targeting Chimera Degrader for the Treatment of TRIM37-Amplified Breast Cancer” (J Med Chem, 2023).

molecular target: T1, Protein cereblon/Serine/threonine-protein kinase PLK4 (Homo sapiens, UniProt O00444+Q96SW2); assay: Protac activity at CRBN/PLK4 in human MCF7 cells at 0.1 uM incubated for 48 hrs by Western blot analysis; assay type: cell-based; details: not given
T1 sequence (Q96SW2 whole entry, looked up, one chain of several): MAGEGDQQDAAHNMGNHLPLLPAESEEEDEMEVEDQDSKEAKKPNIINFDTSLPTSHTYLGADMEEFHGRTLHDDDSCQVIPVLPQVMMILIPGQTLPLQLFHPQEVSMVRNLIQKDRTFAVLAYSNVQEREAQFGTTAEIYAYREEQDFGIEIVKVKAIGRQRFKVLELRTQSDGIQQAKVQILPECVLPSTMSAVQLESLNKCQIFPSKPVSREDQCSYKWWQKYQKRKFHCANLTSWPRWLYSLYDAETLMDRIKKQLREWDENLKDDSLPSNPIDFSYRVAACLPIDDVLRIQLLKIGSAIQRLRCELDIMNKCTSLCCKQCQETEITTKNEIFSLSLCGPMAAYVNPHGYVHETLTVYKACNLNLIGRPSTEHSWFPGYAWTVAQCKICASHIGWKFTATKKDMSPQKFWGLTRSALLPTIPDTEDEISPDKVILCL

Row | SMILES | Activity [%]
1 | Cc1cc(Nc2nc(NCc3ccc(F)cc3F)nc3c2cnn3C2CCN(C(=O)CCCOc3ccc4c(c3)C(=O)N(C3CCC(=O)NC3=O)C4=O)CC2)n[nH]1 (stereo unspecified) | 44.6
2 | Cc1cc(Nc2nc(NCc3ccc(F)cc3F)nc3c2cnn3C2CCN(C(=O)CCCCOc3ccc4c(c3)C(=O)N(C3CCC(=O)NC3=O)C4=O)CC2)n[nH]1 (stereo unspecified) | 44.1
3 | Cc1cc(Nc2nc(NCc3ccc(F)cc3F)nc3c2cnn3C2CCN(C(=O)CCCCCCOc3ccc4c(c3)C(=O)N(C3CCC(=O)NC3=O)C4=O)CC2)n[nH]1 (stereo unspecified) | 31.7
4 | Cc1cc(Nc2nc(NCc3ccc(F)cc3F)nc3c2cnn3C2CCN(C(=O)CC3CN(c4ccc5c(c4)C(=O)N(C4CCC(=O)NC4=O)C5=O)C3)CC2)n[nH]1 (stereo unspecified) | 47.7
5 | Cc1cc(Nc2nc(NCc3ccc(F)cc3F)nc3c2cnn3C2CCN(C(=O)C3CCN(c4ccc5c(c4)C(=O)N(C4CCC(=O)NC4=O)C5=O)C3)CC2)n[nH]1 (stereo unspecified) | 36.7
6 | Cc1cc(Nc2nc(NCc3ccc(F)cc3F)nc3c2cnn3C2CCN(C(=O)c3ccc(C4CCN(c5ccc6c(c5)C(=O)N(C5CCC(=O)NC5=O)C6=O)CC4)cc3)CC2)n[nH]1 (stereo unspecified) | 50.5
7 | Cc1cc(Nc2nc(NCc3ccc(F)cc3F)nc3c2cnn3C2CCN(C(=O)CC3CCN(c4ccc5c(c4)C(=O)N(C4CCC(=O)NC4=O)C5=O)CC3)CC2)n[nH]1 (stereo unspecified) | 46.2
8 | Cc1cc(Nc2nc(NCc3ccc(F)cc3F)nc3c2cnn3C2CCN(C(=O)COCCOCCOc3ccc4c(c3)C(=O)N(C3CCC(=O)NC3=O)C4=O)CC2)n[nH]1 (stereo unspecified) | 24.6
9 | Cc1cc(Nc2nc(NCc3ccc(F)cc3F)nc3c2cnn3C2CCN(C(=O)Cc3ccc(N4CCN(c5ccc6c(c5)C(=O)N(C5CCC(=O)NC5=O)C6=O)CC4)cc3)CC2)n[nH]1 (stereo unspecified) | 40.1
10 | Cc1cc(Nc2nc(NCc3ccc(F)cc3F)nc3c2cnn3C2CCN(C(=O)CCCCCCCCCCCOc3ccc4c(c3)C(=O)N(C3CCC(=O)NC3=O)C4=O)CC2)n[nH]1 (stereo unspecified) | 4.29

molecular target: T2, Serine/threonine-protein kinase PLK4 (Homo sapiens, UniProt O00444); assay: Inhibition of PLK4 (unknown origin) incubated for 1 hr in presence of kinase tracer 236 by FRET assay; details: not given
T2 sequence (O00444 whole entry): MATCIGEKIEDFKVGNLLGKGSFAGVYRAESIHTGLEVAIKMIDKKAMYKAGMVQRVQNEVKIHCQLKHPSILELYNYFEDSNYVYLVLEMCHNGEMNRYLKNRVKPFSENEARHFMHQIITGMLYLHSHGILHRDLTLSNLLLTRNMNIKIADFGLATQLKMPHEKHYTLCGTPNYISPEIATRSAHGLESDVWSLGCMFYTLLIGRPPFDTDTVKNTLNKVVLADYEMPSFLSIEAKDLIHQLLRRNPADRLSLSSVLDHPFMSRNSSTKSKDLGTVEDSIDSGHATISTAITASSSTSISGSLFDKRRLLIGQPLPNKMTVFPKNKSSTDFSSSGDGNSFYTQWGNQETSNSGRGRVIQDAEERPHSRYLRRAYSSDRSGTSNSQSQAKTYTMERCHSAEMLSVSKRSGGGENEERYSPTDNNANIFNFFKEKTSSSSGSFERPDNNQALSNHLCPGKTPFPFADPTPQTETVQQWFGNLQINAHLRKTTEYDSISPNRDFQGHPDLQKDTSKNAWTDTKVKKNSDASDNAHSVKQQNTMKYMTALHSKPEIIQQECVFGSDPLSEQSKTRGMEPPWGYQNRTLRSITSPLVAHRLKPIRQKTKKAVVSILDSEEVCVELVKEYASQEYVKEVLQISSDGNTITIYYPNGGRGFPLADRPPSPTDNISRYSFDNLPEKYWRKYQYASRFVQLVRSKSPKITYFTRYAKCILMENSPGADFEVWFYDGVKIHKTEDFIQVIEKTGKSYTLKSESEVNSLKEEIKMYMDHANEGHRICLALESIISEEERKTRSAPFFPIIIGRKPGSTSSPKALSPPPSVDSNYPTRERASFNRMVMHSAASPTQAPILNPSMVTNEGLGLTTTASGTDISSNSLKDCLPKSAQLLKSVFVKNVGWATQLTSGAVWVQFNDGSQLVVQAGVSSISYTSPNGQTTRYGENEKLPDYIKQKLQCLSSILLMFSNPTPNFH

Row | SMILES | IC50 [nM]
11 | Cc1cc(Nc2nc(NCc3ccc(F)cc3F)nc3c2cnn3C2CCN(C(=O)CCCOc3ccc4c(c3)C(=O)N(C3CCC(=O)NC3=O)C4=O)CC2)n[nH]1 (stereo unspecified) | 1.5
12 | Cc1cc(Nc2nc(NCc3ccc(F)cc3F)nc3c2cnn3C2CCN(C(=O)CCCCOc3ccc4c(c3)C(=O)N(C3CCC(=O)NC3=O)C4=O)CC2)n[nH]1 (stereo unspecified) | 2.6
13 | Cc1cc(Nc2nc(NCc3ccc(F)cc3F)nc3c2cnn3C2CCN(C(=O)CCCCCCOc3ccc4c(c3)C(=O)N(C3CCC(=O)NC3=O)C4=O)CC2)n[nH]1 (stereo unspecified) | 9.1
14 | Cc1cc(Nc2nc(NCc3ccc(F)cc3F)nc3c2cnn3C2CCN(C(=O)CC3CN(c4ccc5c(c4)C(=O)N(C4CCC(=O)NC4=O)C5=O)C3)CC2)n[nH]1 (stereo unspecified) | 12.9
15 | Cc1cc(Nc2nc(NCc3ccc(F)cc3F)nc3c2cnn3C2CCN(C(=O)C3CCN(c4ccc5c(c4)C(=O)N(C4CCC(=O)NC4=O)C5=O)C3)CC2)n[nH]1 (stereo unspecified) | 5.5
16 | Cc1cc(Nc2nc(NCc3ccc(F)cc3F)nc3c2cnn3C2CCN(C(=O)c3ccc(C4CCN(c5ccc6c(c5)C(=O)N(C5CCC(=O)NC5=O)C6=O)CC4)cc3)CC2)n[nH]1 (stereo unspecified) | 82.7
17 | Cc1cc(Nc2nc(NCc3ccc(F)cc3F)nc3c2cnn3C2CCN(C(=O)CC3CCN(c4ccc5c(c4)C(=O)N(C4CCC(=O)NC4=O)C5=O)CC3)CC2)n[nH]1 (stereo unspecified) | 19.1
18 | Cc1cc(Nc2nc(NCc3ccc(F)cc3F)nc3c2cnn3C2CCN(C(=O)COCCOCCOc3ccc4c(c3)C(=O)N(C3CCC(=O)NC3=O)C4=O)CC2)n[nH]1 (stereo unspecified) | 9.4
19 | Cc1cc(Nc2nc(NCc3ccc(F)cc3F)nc3c2cnn3C2CCN(C(=O)Cc3ccc(N4CCN(c5ccc6c(c5)C(=O)N(C5CCC(=O)NC5=O)C6=O)CC4)cc3)CC2)n[nH]1 (stereo unspecified) | 216
20 | Cc1cc(Nc2nc(NCc3ccc(F)cc3F)nc3c2cnn3C2CCN(C(=O)CCCCCCCCCCCOc3ccc4c(c3)C(=O)N(C3CCC(=O)NC3=O)C4=O)CC2)n[nH]1 (stereo unspecified) | 531

molecular target: T1, Protein cereblon/Serine/threonine-protein kinase PLK4; assay: Protac activity at CRBN/PLK4 in human MCF7 cells at 1 uM incubated for 48 hrs by Western blot analysis; assay type: cell-based; details: not given

Row | SMILES | Activity [%]
21 | Cc1cc(Nc2nc(NCc3ccc(F)cc3F)nc3c2cnn3C2CCN(C(=O)CCCOc3ccc4c(c3)C(=O)N(C3CCC(=O)NC3=O)C4=O)CC2)n[nH]1 (stereo unspecified) | 53.1
22 | Cc1cc(Nc2nc(NCc3ccc(F)cc3F)nc3c2cnn3C2CCN(C(=O)CCCCOc3ccc4c(c3)C(=O)N(C3CCC(=O)NC3=O)C4=O)CC2)n[nH]1 (stereo unspecified) | 56.8
23 | Cc1cc(Nc2nc(NCc3ccc(F)cc3F)nc3c2cnn3C2CCN(C(=O)CCCCCCOc3ccc4c(c3)C(=O)N(C3CCC(=O)NC3=O)C4=O)CC2)n[nH]1 (stereo unspecified) | 55.3
24 | Cc1cc(Nc2nc(NCc3ccc(F)cc3F)nc3c2cnn3C2CCN(C(=O)CC3CN(c4ccc5c(c4)C(=O)N(C4CCC(=O)NC4=O)C5=O)C3)CC2)n[nH]1 (stereo unspecified) | 70.4
25 | Cc1cc(Nc2nc(NCc3ccc(F)cc3F)nc3c2cnn3C2CCN(C(=O)C3CCN(c4ccc5c(c4)C(=O)N(C4CCC(=O)NC4=O)C5=O)C3)CC2)n[nH]1 (stereo unspecified) | 56.1
26 | Cc1cc(Nc2nc(NCc3ccc(F)cc3F)nc3c2cnn3C2CCN(C(=O)c3ccc(C4CCN(c5ccc6c(c5)C(=O)N(C5CCC(=O)NC5=O)C6=O)CC4)cc3)CC2)n[nH]1 (stereo unspecified) | 61.4
27 | Cc1cc(Nc2nc(NCc3ccc(F)cc3F)nc3c2cnn3C2CCN(C(=O)CC3CCN(c4ccc5c(c4)C(=O)N(C4CCC(=O)NC4=O)C5=O)CC3)CC2)n[nH]1 (stereo unspecified) | 51
28 | Cc1cc(Nc2nc(NCc3ccc(F)cc3F)nc3c2cnn3C2CCN(C(=O)COCCOCCOc3ccc4c(c3)C(=O)N(C3CCC(=O)NC3=O)C4=O)CC2)n[nH]1 (stereo unspecified) | 30.3
29 | Cc1cc(Nc2nc(NCc3ccc(F)cc3F)nc3c2cnn3C2CCN(C(=O)Cc3ccc(N4CCN(c5ccc6c(c5)C(=O)N(C5CCC(=O)NC5=O)C6=O)CC4)cc3)CC2)n[nH]1 (stereo unspecified) | 57.6
30 | Cc1cc(Nc2nc(NCc3ccc(F)cc3F)nc3c2cnn3C2CCN(C(=O)CCCCCCCCCCCOc3ccc4c(c3)C(=O)N(C3CCC(=O)NC3=O)C4=O)CC2)n[nH]1 (stereo unspecified) | 13.2

system: MCF7; assay: Antiproliferative activity against human MCF7 cells incubated for 5 days by CCK-8 assay; details: MCF7, 120 h

Row | SMILES | IC50 [nM]
31 | Cc1cc(Nc2nc(NCc3ccc(F)cc3F)nc3c2cnn3C2CCN(C(=O)CCCOc3ccc4c(c3)C(=O)N(C3CCC(=O)NC3=O)C4=O)CC2)n[nH]1 (stereo unspecified) | 2150
32 | Cc1cc(Nc2nc(NCc3ccc(F)cc3F)nc3c2cnn3C2CCN(C(=O)CCCCOc3ccc4c(c3)C(=O)N(C3CCC(=O)NC3=O)C4=O)CC2)n[nH]1 (stereo unspecified) | 260
33 | Cc1cc(Nc2nc(NCc3ccc(F)cc3F)nc3c2cnn3C2CCN(C(=O)CCCCCCOc3ccc4c(c3)C(=O)N(C3CCC(=O)NC3=O)C4=O)CC2)n[nH]1 (stereo unspecified) | 220
34 | Cc1cc(Nc2nc(NCc3ccc(F)cc3F)nc3c2cnn3C2CCN(C(=O)CC3CN(c4ccc5c(c4)C(=O)N(C4CCC(=O)NC4=O)C5=O)C3)CC2)n[nH]1 (stereo unspecified) | 510
35 | Cc1cc(Nc2nc(NCc3ccc(F)cc3F)nc3c2cnn3C2CCN(C(=O)C3CCN(c4ccc5c(c4)C(=O)N(C4CCC(=O)NC4=O)C5=O)C3)CC2)n[nH]1 (stereo unspecified) | 260
36 | Cc1cc(Nc2nc(NCc3ccc(F)cc3F)nc3c2cnn3C2CCN(C(=O)c3ccc(C4CCN(c5ccc6c(c5)C(=O)N(C5CCC(=O)NC5=O)C6=O)CC4)cc3)CC2)n[nH]1 (stereo unspecified) | 2500
37 | Cc1cc(Nc2nc(NCc3ccc(F)cc3F)nc3c2cnn3C2CCN(C(=O)CC3CCN(c4ccc5c(c4)C(=O)N(C4CCC(=O)NC4=O)C5=O)CC3)CC2)n[nH]1 (stereo unspecified) | 2460
38 | Cc1cc(Nc2nc(NCc3ccc(F)cc3F)nc3c2cnn3C2CCN(C(=O)Cc3ccc(N4CCN(c5ccc6c(c5)C(=O)N(C5CCC(=O)NC5=O)C6=O)CC4)cc3)CC2)n[nH]1 (stereo unspecified) | 6980

molecular target: T1, Protein cereblon/Serine/threonine-protein kinase PLK4; assay: Protac activity at CRBN/PLK4 in human MCF7 cells at 1 to 10 nM by Western blot analysis; assay type: cell-based; details: dose 1-10 nM, time 6-72 hrs, TDE = time-dependent effect

Row | SMILES | Activity
39 | Cc1cc(Nc2nc(NCc3ccc(F)cc3F)nc3c2cnn3C2CCN(C(=O)CCCOc3ccc4c(c3)C(=O)N(C3CCC(=O)NC3=O)C4=O)CC2)n[nH]1 (stereo unspecified) | Tde

molecular target: T1, Protein cereblon/Serine/threonine-protein kinase PLK4; assay: Protac activity at CRBN/PLK4 in human MCF7 cells at 10 uM incubated for 48 hrs by Western blot analysis; assay type: cell-based; details: not given

Row | SMILES | Activity [%]
40 | Cc1cc(Nc2nc(NCc3ccc(F)cc3F)nc3c2cnn3C2CCN(C(=O)CCCOc3ccc4c(c3)C(=O)N(C3CCC(=O)NC3=O)C4=O)CC2)n[nH]1 (stereo unspecified) | 65.8
41 | Cc1cc(Nc2nc(NCc3ccc(F)cc3F)nc3c2cnn3C2CCN(C(=O)CCCCOc3ccc4c(c3)C(=O)N(C3CCC(=O)NC3=O)C4=O)CC2)n[nH]1 (stereo unspecified) | 63.6
42 | Cc1cc(Nc2nc(NCc3ccc(F)cc3F)nc3c2cnn3C2CCN(C(=O)CCCCCCOc3ccc4c(c3)C(=O)N(C3CCC(=O)NC3=O)C4=O)CC2)n[nH]1 (stereo unspecified) | 68.9
43 | Cc1cc(Nc2nc(NCc3ccc(F)cc3F)nc3c2cnn3C2CCN(C(=O)C3CCN(c4ccc5c(c4)C(=O)N(C4CCC(=O)NC4=O)C5=O)C3)CC2)n[nH]1 (stereo unspecified) | 66.8
44 | Cc1cc(Nc2nc(NCc3ccc(F)cc3F)nc3c2cnn3C2CCN(C(=O)c3ccc(C4CCN(c5ccc6c(c5)C(=O)N(C5CCC(=O)NC5=O)C6=O)CC4)cc3)CC2)n[nH]1 (stereo unspecified) | 69.9
45 | Cc1cc(Nc2nc(NCc3ccc(F)cc3F)nc3c2cnn3C2CCN(C(=O)COCCOCCOc3ccc4c(c3)C(=O)N(C3CCC(=O)NC3=O)C4=O)CC2)n[nH]1 (stereo unspecified) | 38.5
46 | Cc1cc(Nc2nc(NCc3ccc(F)cc3F)nc3c2cnn3C2CCN(C(=O)CCCCCCCCCCCOc3ccc4c(c3)C(=O)N(C3CCC(=O)NC3=O)C4=O)CC2)n[nH]1 (stereo unspecified) | 21.7
